These results are taken from US10126304B2, “Binding domain mapping” (George Mason Research Foundation, Inc., priority 2013, dated 2018).

In assay [1] the target is T1, IL1R1 molecule, soluble portion (Homo sapiens, UniProt P14778).
T1 construct: Linear representation of IL1R1 molecule, soluble portion; purchased Adipogen
T1 sequence (P14778 21-336): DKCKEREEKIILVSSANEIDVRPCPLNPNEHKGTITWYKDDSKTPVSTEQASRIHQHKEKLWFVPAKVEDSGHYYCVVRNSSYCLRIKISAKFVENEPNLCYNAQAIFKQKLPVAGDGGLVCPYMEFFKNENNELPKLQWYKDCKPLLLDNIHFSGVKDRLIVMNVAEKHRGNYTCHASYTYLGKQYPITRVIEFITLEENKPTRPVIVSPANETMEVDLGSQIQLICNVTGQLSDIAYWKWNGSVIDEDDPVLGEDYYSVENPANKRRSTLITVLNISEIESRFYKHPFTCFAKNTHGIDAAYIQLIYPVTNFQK
Briefly: Trypsin sites blocked by small organic molecules on folded protein, mass spectrometry. It is filed as biochemical. The text has this:
The binding of the small organic molecules is localized to multiple sites restricted to the surface of the protein, and excluded from internal domains of protein-protein interactions […]. […] Thus these molecules can be employed to reveal a) the inner contact domains of a single folded protein or b) the contact domains of two or more interacting proteins.
To identify functional protein-protein interaction domains, three equimolar concentrations of Interleukin ligand, its cognate receptor, and its accessory proteins were selected as a proof of concept protein complex. Interleukin 1β (IL1β, Gibco, 65 pmoles in 50 μl PBS), Interleukin 1 receptor type I (IL1RI, Adipogen, 65 pmoles in 50 μl PBS), and Interleukin 1 receptor accessory protein (IL1RAcP, Novoprotein, 65 pmoles in 50 μl PBS), were allowed to interact for one hour at room temperature under rotation. […]
As a control to identify solvent accessible surface areas, protein solutions were prepared in parallel at the same concentrations without adding paint molecules. […] Equal quantities of unbound, Interleukin 1β, IL1RI, or IL1RAcP were mixed individually with each of the four molecular paints (3 proteins×4 paints, n=12) in a 1:10 molar ratio (protein:molecular paint). […]
The solutions were immediately passed through a size sieving Sephadex column (PD MiniTrap G 25, GE Healthcare) and the flow through was collected, denatured with urea (final concentration 2M), reduced with 1 M dithiothreitol (Sigma, 15 minutes at 37° C.), alkylated with 0.5 M iodoacetamide (Sigma, 15 minutes, room temperature in the dark), and digested with trypsin (Promega) at 1:10 w/w protease/protein ratio for 2 hours at 37° C. Tryptic peptides were purified by Zip-Tip (Millipore) following manufacturer's instructions, and analyzed by reversed-phase liquid chromatography nanospray tandem mass spectrometry (LC-MS/MS) using an LTQ-Orbitrap mass spectrometer (ThermoFisher).

Assay [2] concerns SAPK/JNK signaling downstream from IL1RI. The assay can be described thus: SAPK/JNK signaling in IL1β stimulated NCI/ADR-RES cells, western blotting. It is filed as cell-based. As to conditions: IL1β 10 ng/mL; Arg286 peptide 3.3, 16.7 and 33 μM; scrambled peptide 33 μM. The protocol:
NCI/ADR-RES cells (Division of Cancer Treatment and Diagnosis, National Cancer Institute) were cultured in Dulbecco's modified Eagle's medium (Gibco) with 10% fetal bovine serum (ATCC), and 2 mM L-glutamine (ATCC) at 37° C., 5% CO2, in a humidified environment. NCI/ADR-RES cells (2×10^6 cells/well) were plated into 6-well tissue culture dishes. The following day, cells were pre-treated for 30 minutes with soluble IL1RAcP (1 μg/mL) lacking the trans-membrane domain, Arg286 peptide ([…], 3.3, 16.7 and 33 μM) (SEQ ID NO:6) and a scrambled peptide obtained by randomly shuffling Arg286 sequence ([…], 33 μM) (SEQ ID NO:7). Cells were washed with Dulbecco's modified Eagle's medium with 10% fetal bovine serum, and 2 mM glutamine and were stimulated with IL1β at 10 ng/ml for 30 min. Following incubation, cells were washed in ice-cold PBS, incubated with 100 μl of cell lysis buffer (10% Bond Breaker TCEP solution (Thermo Scientific), 45% T-PER tissue protein extraction reagent (Thermo Scientific) and 45% Novex Tris Glycine SDS sample buffer 2× (Invitrogen)), scraped, transferred to Eppendorf tubes, and heated at 100° C. for 10 minutes. Cell lysates were analyzed by western blotting.
Proteins were separated by 1-D gel electrophoresis in 4-20% Tris-Glycine gel in the presence of Tris-Glycine SDS running buffer with the following run conditions: 125 V, 90 minutes. […]

The target in assay [3] is T2, IL1β-IL1RI-IL1RAcP complex (Homo sapiens, UniProt P01584+P14778).
T2 construct: purchased Gibco (IL1β); Adipogen (IL1RI); Novoprotein (IL1RAcP)
The assay can be described thus: Pull-down of IL1β within the receptor complex by His-tagged IL1RAcP (immunoprecipitation). It is filed as binding. As to conditions: Arg286 peptide 6.7, 3.3, 1.7, 0.8 and 0.4 μM. The method, then:
IL1β (0.44 μg/mL), IL1RI (2 μg/mL) and 6×His-tagged IL1RAcP (0.72 μg/mL) were incubated with Arg286 peptide (6.7, 3.3, 1.7, 0.8 and 0.4 μM) in 50 μl of PBS for one hour at room temperature under rotation. In parallel, […], IL1RI and 6×His-tagged IL1RAcP were allowed to interact without Arg286 peptide as a positive control. IL1β, and 6×His-tagged IL1RAcP were allowed to interact in absence of IL1RI as a negative control. After 1 hour, protein mixtures were incubated with magnetic beads decorated with anti-6His mouse monoclonal antibody obtained as follows. BcMag Protein G Magnetic Beads (50 μl, Bioclone) were washed 3 times with washing buffer (57.7 mM Na2HPO4, 42.3 mM NaH2PO4, pH 7.0) and incubated with anti-6×His mouse monoclonal antibody (1 μg, Abcam) for 30 minutes under rotation. Magnetic beads were separated from the supernatant with neodymium magnets, washed three times with washing buffer (57.7 mM Na2HPO4, 42.3 mM NaH2PO4, pH 7.0) and incubated with protein mixtures for one hour at room temperature under rotation. Magnetic beads were separated from the supernatant with neodymium magnets and washed three times with washing buffer (57.7 mM Na2HPO4, 42.3 mM NaH2PO4, pH 7.0). Immuno-precipitated proteins were eluted with 20 μl of 4× sample buffer (10 minutes, 70° C.). Immuno-precipitated proteins were analyzed by western blotting. […]

Entries after “also recorded” stand apart in the source; their conditions may differ.

T2 sequence (P01584 117-269, one chain of several): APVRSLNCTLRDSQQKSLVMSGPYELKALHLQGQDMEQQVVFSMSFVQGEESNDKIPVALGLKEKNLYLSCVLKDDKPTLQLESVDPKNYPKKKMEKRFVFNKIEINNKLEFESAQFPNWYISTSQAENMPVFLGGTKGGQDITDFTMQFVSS

For the compound `O=S(=O)(O)c1cccc2cccc(Nc3ccccc3)c12` [ANSA, 8-Anilino-1-naphthalenesulfonic acid], the “location of blocked trypsin sites on IL1R1” value (from here on “location”) in assay [1] is given as “lay on the surface of the molecule”.

In the case of `CCN1/C(=C/C=C/c2sc3ccccc3[n+]2CC)Sc2ccccc21` [DECI, 3,3′-Diethylthiacarbocyanine iodide], in assay [1], the “location” value was “lay on the surface of the folded molecule”.

`CN=C1C=CC(=C(c2ccc(N(C)C)cc2)c2ccc(N(C)C)cc2)C=C1.Cl` [MV, N-(4-{bis[4-(dimethylamino)phenyl]methylene}-2,5-cyclohexadien-1-ylidene)methanaminium chloride]: in assay [1], the “location” value is “lay on the surface of the folded native molecule”.

For “HLRNISRISSITDTSETETEQ [scrambled peptide]”, the “inhibition of SAPK/JNK signaling downstream from IL1RI” value in assay [2] is on record as “does not inhibit the signaling downstream from IL1RI”.

As to TINESISHSRTEDETRTQILS [Arg286 peptide], the “inhibition of ligand pull-down / 3-protein complex formation” value in assay [3] is “completely blocked IL1RAcP 3-way binding to the receptor ligand complex; also recorded: inhibition of ligand pull-down”. Further, the “inhibition of SAPK/JNK signaling downstream from IL1RI” value in assay [2] is “completely blocked IL1 ligand-stimulated signaling, in a dose dependent manner; also recorded: inhibited SAPK/JNK signaling downstream from IL1RI as effectively as IL1RAcP”.
